This is an account of results in US20050267145A1, “Treatment for lung cancer” (priority 2004, published 2005).

The target in one assay is T1, 5-lipoxygenase (Mus musculus, UniProt P48999).
T1 construct: Resident mouse peritoneal macrophages were obtained from male CD-1 mice; endogenous in cells; host or cells: resident peritoneal macrophages from male CD-1 mice (Charles River Laboratories)
T1 sequence (P48999 1-674): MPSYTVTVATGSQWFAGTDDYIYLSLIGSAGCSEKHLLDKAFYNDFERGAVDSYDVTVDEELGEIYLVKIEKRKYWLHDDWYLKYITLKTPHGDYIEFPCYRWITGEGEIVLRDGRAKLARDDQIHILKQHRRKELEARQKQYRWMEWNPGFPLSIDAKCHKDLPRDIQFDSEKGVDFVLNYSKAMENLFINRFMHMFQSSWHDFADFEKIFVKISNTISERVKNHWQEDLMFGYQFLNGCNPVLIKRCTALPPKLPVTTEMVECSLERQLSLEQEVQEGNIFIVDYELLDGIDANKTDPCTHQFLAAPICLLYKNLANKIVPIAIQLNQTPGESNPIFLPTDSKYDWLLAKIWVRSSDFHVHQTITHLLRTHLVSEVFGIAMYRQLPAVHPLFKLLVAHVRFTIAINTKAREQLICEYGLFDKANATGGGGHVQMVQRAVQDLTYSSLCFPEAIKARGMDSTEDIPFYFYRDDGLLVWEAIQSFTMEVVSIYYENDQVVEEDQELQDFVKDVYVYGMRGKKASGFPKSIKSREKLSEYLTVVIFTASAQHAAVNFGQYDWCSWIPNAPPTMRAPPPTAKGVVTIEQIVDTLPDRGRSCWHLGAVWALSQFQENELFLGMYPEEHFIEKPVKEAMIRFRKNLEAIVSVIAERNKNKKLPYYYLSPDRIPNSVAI
Nature of the assay: Sustained 5-lipoxygenase inhibition in vitro (LTC4 by RIA, mouse peritoneal macrophages, washout). It is filed as cell-based. The note with it: 10 μM for 30 minutes, washed, six hours washout, zymosan 50 μg/mL challenge; for inhibition at 10 µM: read-out: Sustained Inhibition, 10 μM Initial. As for the experimental part: LTC4 was purchased from Biomol International, L.P., Plymouth Meeting, Pa.; ^3H-LTC4 was purchased from PerkinElmer Life and Analytical Sciences, Inc., Boston, Mass.; and antibody to LTC4 was purchased from Advanced Magnetics, Inc., Cambridge, Mass.
The retrieved lavage medium was added to tissue culture dishes and incubated for two hours at 37° C. in a humidified atmosphere containing 5% CO2. Following macrophage enrichment by adherence, the culture medium was removed and the resultant cell layer was washed twice with PBS, the medium (with heparin) was replaced with 1 mL of medium (without heparin), and the cells were then incubated overnight as described above. The following morning the medium was removed and the macrophages were washed twice with 2 mL PBS. One mL of fresh medium, devoid of serum, was then added.
Test compounds were added to the macrophage cultures to achieve a final concentration of 10 μM. The final DMSO concentration was 0.1% in for each test compound. Blank and control cultures were treated with DMSO only. After 30 minutes incubation, the macrophages were washed twice with 2 mL PBS. […] This treatment described in (b) was to allow for a washout period for the test compound.

In assay [1] the test system is A23187-Stimulated LTB4 in Rat Lung. The assay can be described thus: A23187-stimulated LTB4 in rat lung in situ (MDI dosing). The settings on record: 20 μg by single MDI activation into excised rat lung, A23187 challenge, LTB4 by RIA. As for the experimental part:
For the evaluation of test compounds using metered dose inhalers, dry compounds were dissolved in ethanol to a concentration of 2.33 mg/mL. 2.54 mL of this solution was added to a 20 g glass metered dose inhaler (MDI) vial and fitted with a continuous valve. The vials were cooled on dry ice, filled with 18 g of HFA 134a (DYMEL, E. I. Du Pont de Nemours and Co., Corpus Christi, Tex.), returned to dry ice, and the continuous valve was replaced with an intermittent valve that delivered 25 μL per activation. A single activation of a vial prepared as described delivered 20 μg of compound per activation. For experiments requiring different mass of compound per activation, the initial ethanol solution concentration was adjusted as necessary.
Male Sprague-Dawley rats (Charles River Laboratories, Inc. Wilmington, Mass.) weighing 250-300 grams were anesthetized with methoxyflurane in a closed container, the peritoneal cavity was exposed, and the animals were exsanguinated. The pleural cavity was exposed and the lung was removed with both the trachea and heart attached. The trachea was fitted with a cannula, secured with a ligature, and the distal end of the cannula was extended through a small hole in a #6 rubber stopper allowing for a tight seal. The lung, secured to the cannula and stopper, was then suspended in a 125 mL side arm Erlenmeyer flask filled to 100 mL with PBS warmed to 37° C. As such, access to the airways of the lung could be achieved through the cannula extending through the stopper to the outside of the flask. The flask was then placed in a 37° C. water bath.
An MDI, prepared as described above, containing test compound was fired with a single activation through the cannula and into the airways of the lung. The MDI were made to deliver 20 μg/shot, thus providing a dose of from about 0.06 mg/kg to about 0.08 mg/kg. Control lungs were similarly treated with an MDI containing propellant and co-solvent. The lungs were then incubated for 5 minutes at 37° C. Following this preincubation, 25 μL of 10 mM A23187 (Sigma Chemical Co., St. Louis, Mo.) was fired into the airways and the lung was incubated for an additional 10 minutes. Control lungs again were treated with propellant and co-solvent, only.
The lungs were then lavaged with 5 mL of ice cold PBS containing 1 mM EDTA. The recovered lavage fluid was centrifuged for 10 minutes at 150×g to sediment cells and LTB4 was quantified in the supernatant by specific RIA. The sensitivity of this assay was 155 pg/mL.

The test system of another assay is pulmonary adenomas. The assay can be described thus: Benzo(a)pyrene-induced pulmonary adenomas in A/J mice. It is filed as in vivo, mouse. The note with it: sixteen weeks; for Adenoma counts, groups 1H and 2H compared: high dose 425 μg/kg by inhalation.
Assay [2] concerns MC-26 murine colon carcinoma cells. Nature of the assay: Lung metastatic mouse model (MC-26 colon carcinoma cells i.v.), lung weight. It is filed as in vivo. The note with it: statement on Table 3. As for the experimental part: A lung metastatic mouse model was used to determine the anti-tumor activity of a 5-LO inhibitor (zileuton) in combination with an IRM. 12-18 week old CDF1 female mice (Charles River Laboratories, Inc.) weighing 20-22 grams were injected in the tail intravenously with 5×10^5 MC-26 murine colon carcinoma cells. IRM2 was prepared in a 0.03M citrate buffered saline solution, pH 4.0. Zileuton was prepared in a 10% ethanol in water solution. At four hours and 24 hours after tumor challenge, mice were injected intra-peritoneally with zileuton and IRM2 as indicated in Table 3. One group of mice (Vehicle) was untreated. Fourteen days after tumor challenge, mice were sacrificed and lungs were removed and weighed.

The test system of a further assay is lung tumors. The settings on record: mice, administered orally; cited from earlier work.

`CCC(CC)N(O)C(=O)Nc1cccc(Oc2ccccc2)c1` [Compound 1, 1-hydroxy-1-(1-ethylpropyl)-3-(3-phenoxyphenyl)urea]: the inhibition – broadly, the change of the read-out against control, counted positive when it falls – at 10 µM at 5-lipoxygenase is 100%. The “Inhibition, 20 μg in situ” value in assay [1] is recorded as 100. In the assay on pulmonary adenomas, the “Adenoma counts, groups 1H and 2H compared” value is “similar”.

On to `CCCCCN(O)C(=O)Nc1ccc(OCCCC)cc1` [Compound 2, 3-(4-butoxyphenyl)-1-hydroxy-1-pentylurea], for which the “Adenoma counts, groups 1H and 2H compared” value in the assay on pulmonary adenomas is “similar”.

`O=C(Nc1ccccc1)N(O)CCCn1cccc1` [Compound 3, 1-hydroxy-1-(3-pyrrol-1-ylpropyl)-3-phenylurea]: at 5-lipoxygenase, the inhibition at 10 µM amounted to 3%. The “Inhibition, 20 μg in situ” value in assay [1] was 84.

Take `CCCCCN(O)C(=O)Nc1cc(OC)c(OC)c(OC)c1` [Compound 4, 1-hydroxy-1-pentyl-3-(3,4,5-trimethoxyphenyl)urea]: the inhibition at 10 µM at 5-lipoxygenase came to 24%. For the same compound, the “Inhibition, 20 μg in situ” value in assay [1] worked out at 84.

For the compound `CCC(CC)N(O)C(=O)Nc1ccc(Cc2ccc(NC(=O)N(O)C(CC)CC)cc2)cc1` [Compound 5], the “Sustained Inhibition, 10 μM Initial” value on 5-lipoxygenase amounted to 86. Further, in assay [1], the “Inhibition, 20 μg in situ” value is listed as 66.

On to `CCCCCN(O)C(=O)Nc1ccc(Oc2ccccc2)cc1` [Compound 6, 1-hydroxy-3-(4-phenoxyphenyl)-1-pentylurea], for which the inhibition at 10 µM on 5-lipoxygenase was found to be 100%. Besides, in assay [1], the “Inhibition, 20 μg in situ” value is reported as 88.

As to `CSc1ccc(NC(=O)N(O)C(C)C)cc1` [Compound 7, 1-hydroxy-1-(1-methylethyl)-3-[4-(methylthio)phenyl]urea], the inhibition at 10 µM on 5-lipoxygenase amounted to 18%.

On to `CCC(CC)N(O)C(=O)Nc1ccccc1` [Compound 8, 1-hydroxy-1-(1-ethylpropyl)-3-phenylurea], for which, at 5-lipoxygenase, the inhibition at 10 µM came out at 12%. For the same compound, in assay [1], the “Inhibition, 20 μg in situ” value is 72.

In the case of `CSc1ccc(NC(=O)N(C)O)cc1` [Compound 9, 1-hydroxy-1-methyl-3-[4-(methylthio)phenyl]urea], the inhibition at 10 µM on 5-lipoxygenase turned out to be 0%.

`CC(c1cc2ccccc2s1)N(O)C(N)=O` (stereo not drawn) [Zileuton, zileuton, reference compound]: the inhibition at 10 µM at 5-lipoxygenase is 28%. Moreover, the “Inhibition, 20 μg in situ” value in assay [1] was 42. For the same compound, in the assay on pulmonary adenomas (oral, average 245 mg/kg in the diet), the “effect on the number of pulmonary adenomas” value was “did not have any apparent effect”. For the same compound, the tumor growth entry in assay [2] is listed as “inhibits tumor growth”. In the assay on lung tumors, the “preventing lung tumors and slowing growth and progression of adenoma to carcinoma” value was “effective”.
